We go through three molecules from patent US20090099191A1, “INHIBITION OF NF-KB” (priority 2006, published 2009).

For one series, the system named is NF-κB. In words: NF-κB activity in tumor cells. The format is cell-based.
Series [1] deals with variety of tumor cell types. In words: p53 activation and p53-dependent killing of tumor cell types. In kind it is cell-based. To be noted: besides RCC.
The subject of series [2] is DNA. Kind of series: DNA damaging activity.
Another series has as its system tumor and normal cells. In words: Toxicity to tumor versus normal cells. The format is cell-based. To be noted: in vitro and in vivo. How it is done: 5×10^3 of cells were plated in 6 well plates and treated with different concentrations of drugs for 24 hours. Then fresh drug-free medium was added. Number of colonies was estimated after 5-6 days of incubation. Cell survival was estimated as a percentage of intensity of methylene blue staining of treated cells, comparing with untreated control (methylene blue from stained colonies was extracted by 0.1% of SDS and quantitated spectrophotometrically).

Series [3] relates to p53 transactivation in RCC45ConALacZ cells. In words: RCC cell-based p53-responsive reporter (ConALacZ) screening. From the text: Reporter cell lines with p53 responsive β-galactosidase were described in Gurova, et al. (2004). Cancer Res 64, 1951-1958. Reporter cell lines with p53 responsive luciferase was generated by transfection of p21-ConALuc plasmid with following selection on G418. Reporter cell lines with NF-κB-dependent luciferase were obtained by cotransfection of pNF-κBLuc and pEGFP-mito (Clontech) plasmids followed by selection on G418 (marker provided by pEGFP-mito plasmid). Reporter cell lines with myc, or Clock/Bmal responsive reporters were kindly provided by C. Burkhart and M. Antoch (Cleveland Clinic Foundation, OH).
2×10^4 of RCC45ConALacZ cells were plated into wells of 96 well plates in 200 μL of phenol-red free RPMI medium with standard additives. […] After 3 hours of incubation at 37° C., β-galactosidase activity was estimated by reading absorbance values Wallack 1420 plate reader (Perkin Elmer) at λ=430 nm.
For cotransfection set-up, 2×10^5 cells were plated into 6 well plates and, after overnight incubation, transfected with Lipofectamin Plus reagent (Gibco BRL) with 0.5 μg of reporter plasmids (p21-ConALuc or pNF-κBLuc) in combination with different concentrations of p53, Arf, Ss-IκB, or siHDM2 expressing plasmids. […] Luminometric and colorimetric reactions were read on the Wallack 1420 plate reader (Perkin Elmer). […]

The test system of series [4] is DNA. The settings on record: intercalation; cited from earlier work.

With `Nc1c2ccccc2nc2ccccc12` [Compound 9AA, 9-aminoacridine], the “effect on stimulated and basal constitutive NF-κB activity” value with NF-κB was “block stimulated NF-κB activity and also effectively reduce basal levels of constitutive NF-κB activity”. In addition, in series [1], the p53-dependent killing result is “p53-dependent killing” and the p53 activation entry is “capable of p53 activation”. In addition, the DNA damaging activity entry in the series with DNA [2] is “did not show DNA damaging activity”. For the same molecule, the “toxicity to tumor versus normal cells” value with tumor and normal cells is listed as “more toxic to tumor than to normal cells”.

Turning to `CCN(CC)CCCC(C)Nc1c2ccc(Cl)cc2nc2ccc(OC)cc12` (stereo not drawn) [Quinacrine], the “p53 reactivation relative to doxorubicin” value in series [3] (RCC45 cells, library of 59 derivatives of compound 30d9, fold of p53 activation over the effect of 2 μM of doxorubicin (FIG. 3B)) is “intermediate level of activity”. For the same molecule, in series [1], the p53-dependent killing result is listed as “p53-dependent killing” and the p53 activation result is “capable of p53 activation”. Moreover, the DNA damaging activity entry with DNA [2] is “did not show DNA damaging activity”. In addition, the “toxicity to tumor versus normal cells” value with tumor and normal cells was “more toxic to tumor than to normal cells”.

As for `Cc1c2ccncc2c(C)c2c1[nH]c1ccccc12` [ellipticine], the “identified as p53 activator / hit in reporter screen” value in series [3] (RCC45ConALacZ cell-based reporter assay) was “identified”. The DNA binding affinity in the series with DNA [4] was 10^6 M^−1.
